Test results reported in US20250017959A1 (priority 2021, published 2025).

Tested on: HSPC-pDC

Compound: CC[C@@H]1[C@H](F)C(=O)N[C@@H]1COc1nccc2cc(C(N)=O)c(OC)cc12 [IRAK4 inhibitor, Pf06650833]
- cell viability: without major effects
